# Reference: article PMC12732675, “Catalytically Active Recombinant Cysteine Proteases of Haemonchus contortus: Their Ability to Degrade Host Blood Proteins and Modulate Coagulation” (International Journal of Molecular Sciences, 2025)
# Legend:
# mHcCP1c = biological target: T1, mHcCP1c (Haemonchus contortus, UniProt A0A7I4XTV4); test: ovine fibrinogen degradation, SDS-PAGE; assay type: biochemical; conditions: 10 and 50 uM E-64, 15 min pre-incubation, PBS pH 7.4, 37 °C, 16 h; irreversible, covalent
# T1 construct: native signal peptide replaced by CD5 signal; C-terminal His tag; secreted from FreeStyle 293-F cells; Ni-NTA purified
# T1 sequence (A0A7I4XTV4 entry or part of it): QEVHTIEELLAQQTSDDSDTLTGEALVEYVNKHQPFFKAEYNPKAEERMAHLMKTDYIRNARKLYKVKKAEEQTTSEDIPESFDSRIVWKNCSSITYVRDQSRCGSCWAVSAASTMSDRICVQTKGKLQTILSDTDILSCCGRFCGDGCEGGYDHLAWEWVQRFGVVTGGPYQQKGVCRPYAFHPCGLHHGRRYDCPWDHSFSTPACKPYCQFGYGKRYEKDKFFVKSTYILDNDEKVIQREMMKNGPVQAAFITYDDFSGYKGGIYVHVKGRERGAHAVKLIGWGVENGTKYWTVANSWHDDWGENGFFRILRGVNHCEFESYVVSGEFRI
# mHcCBP1 = biological target: T2, mHcCBP1 (Haemonchus contortus, UniProt A0A7I4Z8W6); test: ovine fibrinogen degradation, SDS-PAGE; assay type: biochemical; conditions: 10 and 50 uM E-64, 15 min pre-incubation, PBS pH 7.4, 37 °C, 16 h; irreversible, covalent
# T2 construct: native signal peptide replaced by CD5 signal; C-terminal His tag; secreted from FreeStyle 293-F cells; Ni-NTA purified
# T2 sequence (A0A7I4Z8W6 entry or part of it): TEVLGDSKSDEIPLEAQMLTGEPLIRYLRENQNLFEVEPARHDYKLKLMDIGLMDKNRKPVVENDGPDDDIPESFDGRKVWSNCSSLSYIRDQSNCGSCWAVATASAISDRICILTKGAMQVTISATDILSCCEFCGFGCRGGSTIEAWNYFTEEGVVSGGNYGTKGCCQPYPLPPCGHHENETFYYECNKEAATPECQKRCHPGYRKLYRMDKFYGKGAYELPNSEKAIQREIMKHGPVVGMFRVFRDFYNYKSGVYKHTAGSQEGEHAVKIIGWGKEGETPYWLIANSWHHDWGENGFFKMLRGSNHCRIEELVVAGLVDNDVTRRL
structure (smiles),measurement,setting,value
"CC(C)C[C@H](NC(=O)[C@H]1O[C@@H]1C(=O)O)C(=O)NCCCCN=C(N)N [E-64, L-trans-epoxysuccinyl-leucyl-amido (4-guanidino) butane]","ovine fibrinogen degradation, SDS-PAGE",mHcCP1c,"ablation of the fibrinogenolytic activities of mHcCBP1, mHcCP1c (Figure 7A)"
same,"ovine fibrinogen degradation, SDS-PAGE",mHcCBP1,"ablation of the fibrinogenolytic activities of mHcCBP1, mHcCP1c (Figure 7A)"
